In patent publication US20040121965A1, “Method of treating resistant tumors” (Wyeth Holdings Corporation, priority 2002, published 2004):
Where two headings read alike, the source gives them in different places.

Legend:
KB-3-1 = test: Cell survival assay (SRB), KB-3-1; assay type: cell-based, human
Procedure, shortened: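 Growth inhibition (IC50) is derived from SRB-measured protein content after a 3-day, duplicate exposure to serially diluted compound.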

KB-V1 (MDR1++) = test: Cell survival assay (SRB), KB-V1 (MDR1++); conditions: for IC50: Homo sapiens
KB-8-5 (MDR1+) = test: Cell survival assay (SRB), KB-8-5 (MDR1+); conditions: for IC50: Homo sapiens
KB-HTI-4.0 = test: Cell survival assay, KB-3-1 line made resistant to Example 129 (KB-HTI-4.0); assay type: cell-based, human; conditions: for IC50: KB-3-1 line made resistant to Example 129, Table 8, read-out: KB-HTI-4.0 IC50; for (RR) relative resistance vs. parental cells: KB-HTI-4.0 vs KB-3-1
Text: Cells lines with previously known mechanisms of resistance. […] Res. 8: 207-218,1996); KB-3-1 (parental derived from an epidermoid carcinoma), KB-8.5, KB-V1 (Akiyama S-I, Fojo A, Hanover J A, Pastan I, Gottesman M M. Isolation and genetic characterization of human KB cell lines resistant to multiple drugs. Somatic Cell Mol. Gen., 11: 117-126,1985; Shen D-W, Cardarelli C, Hwang J, Cornwell M, Richert N, Ishii S, Pastan I, Gottesman MM. […] J. Biol. Chem., 261: 7762-7770, 1986); and HL-60 (parental derived from human leukemia) and HL60/AR (McGrath T., Center M. S. Adriamycin resistance in HL60 cells in the absence of detectable P-glycoprotein. Biochem. Res. Commun., 145:1171-1176,1987); A549 and A549.EpoB40 (He L., Yang C.-P.H., Horwitz S. B. Mutations in p-tubulin map to domains involved in regulation of microtubule stability in epothilone-resistant cell lines. Molecular Cancer Therapeutics. 1: 3-10, 2001). HCT-15 human colon carcinoma and DLD-1 human colon carcinoma are obtained from American Tissue Culture Collection. The MX-1W carcinoma is a Wyeth variant orginally obtained as MX-1 breast carcinoma from the National Cancer Institute. Cell lines selected for resistance to Representative Example 129. KB-3-1 cells are selected for resistance to Example 129 by chronically exposing cells to increasing concentrations of Example 129.
2.2. Cell Survival Assay: Standard Pharmacological Test Procedure. The concentration of candidate inhibitor required to inhibit 50% of cell growth (IC50) is done according to previously reported methods. […] Compounds are serially diluted into media as 2× stocks and 100 μl added to cells in duplicate. Compounds are incubated with cells for 3 days. At the end of the incubation period the sulforhodamine B (SRB) assay, which measures protein content as an assessment of cell survival, is performed as described previously (Skehan P, Storeng R, Scudiero D, Monks A, McMahon J, Vistica D, Warren J T, Bokesch H, Kenney S, Boyd MR. New calorimetric cytotoxicity assay for anticancer-drug screening. J Natl Cancer Inst 1990 Jul 4;82(13):1107-12) with some modification as follows. For KB-3-1 cells with 20% FCS, media is gently decanted and replaced with 200 μl of serum-free media mixed with cold 50% TCA for a final concentration of 10% TCA. The plates are incubated for 1 hr at 4° C., followed by washing 5 times in cold distilled water, then air dried overnight. The fixed cells are stained for 10 min with 80 μl of 0.04% SRB solution prepared in 1% glacial acetic acid. Stain is discarded and plates washed 5 times in 1% glacial acetic acid, then air-dried until completely dry. Stained cell product is dissolved in 150 μl of 10 mM Trizma Base and placed on a shaker for 20 minutes until fully dissolved. Absorbance is read on a Victor V multi-label plate reader (Perkin Elmer, Gaithersburg, Md.).
Cells are selected for resistance to Example 129 to understand the frequency and mechanistic basis of resistance.

[1] = read-out: KB-V1 (MDR1++) IC50, nM (N)
[2] = MDR1, read-out: KB-8-5 (MDR1+) IC50, nM (N)
[3] = Homo sapiens, KB-3-1 parental, Table 8, read-out: KB-3-1 IC50

With `CN[C@H](C(=O)N[C@H](C(=O)N(C)[C@H](/C=C(\C)C(=O)O)C(C)C)C(C)(C)C)C(C)(C)c1cn(C)c2ccccc12` [Hemiasterlin, hemiasterlin, reference compound] the IC50 (KB-3-1; Homo sapiens, KB 3-1, KB-3-1 parental, Table 3, read-out: KB-3-1 IC50, nM (N)) was 0.319 ± 0.095 nM, the “RR, relative resistance” value (KB-V1 (MDR1++)) was 239 and the IC50 (KB-V1 (MDR1++); [1]) was 76.1 nM. The “RR, relative resistance” value (KB-8-5 (MDR1+)) was 3.2 and the IC50 (KB-8-5 (MDR1+); [2]) was 1 nM.
`COc1cc2cc(c1Cl)N(C)C(=O)C[C@H](OC(=O)[C@H](C)N(C)C(C)=O)[C@]1(C)O[C@H]1[C@H](C)[C@@H]1C[C@@](O)(NC(=O)O1)[C@H](OC)/C=C/C=C(\C)C2` [Maytansine] was tested, and the IC50 (KB-HTI-4.0; Homo sapiens) was 0.84 ± 0.19 nM, the “(RR) relative resistance vs. parental cells” value (KB-HTI-4.0) was “(14)” and the IC50 (KB-3-1; [3]) was 0.06 nM.
In the case of `C=C(C)[C@@H]1NC(=O)[C@@H](NC)[C@@H](O)c2cc(Cl)c(O)c(c2)O[C@](C)(CC)[C@@H](C(=O)N2CC=C[C@H]2C(=O)N/C(C(=O)N/C(=C/C(=O)O)C(=O)O)=C(\C)CC)NC1=O` [Phomopsin A], the IC50 (KB-HTI-4.0) is reported as 3530 ± 2990 nM, the “(RR) relative resistance vs. parental cells” value (KB-HTI-4.0) is reported as “(5)” and the IC50 (KB-3-1; KB-3-1 parental, Table 8, read-out: KB-3-1 IC50) is reported as 671 ± 55 nM.
For `CCOC(=O)/C(C)=C/[C@H](C(C)C)N(C)C(=O)[C@@H](NC(=O)[C@@H](NC)C(C)(C)C1CCCCC1)C(C)(C)C` [Reference Example 100, 3-Cyclohexyl-N-methyl-L-valyl-N^1-[(1S,2E)-4-ethoxy-1-isopropyl-3-methyl-4-oxo-2-butenyl]-N^1,3-dimethyl-L-valinamide], the IC50 (KB-3-1; Homo sapiens, KB 3-1, KB-3-1 cells (paclitaxel-sensitive parent), read-out: In vitro IC50 (nM) KB-3-1) was 229 nM, the “Ratio KBV1/KB” value (KB-V1 (MDR1++)) was 8.5 and the IC50 (KB-V1 (MDR1++); read-out: In vitro IC50 (nM) KBV1) was 1950 nM. For the same compound, the “Ratio KB85/KB” value (KB-8-5 (MDR1+)) was 2.6 and the IC50 (KB-8-5 (MDR1+); MDR1, read-out: In vitro IC50 (nM) KB85) was 602 nM.
For `CO[C@@H](/C(C)=C/C=C/C(C)=C/c1coc(C)n1)[C@@H](C)[C@@H]1C[C@H](O)[C@@]2(C)O[C@@H]2/C=C/[C@@H](C)[C@H]2C[C@H](CC(=O)O2)C[C@@H]2O[C@H]2C(=O)O1` [Rhizoxin], the IC50 (KB-HTI-4.0; Homo sapiens) was 98.4 ± 37.6 nM, the “(RR) relative resistance vs. parental cells” value (KB-HTI-4.0) was “(11)” and the IC50 (KB-3-1; Homo sapiens, KB 3-1, KB-3-1 parental, Table 8, read-out: KB-3-1 IC50) was 9.13 ± 2.17 nM.
In the case of `CC[C@@]1(O)C(=O)OCc2c1cc1n(c2=O)Cc2cc3c(CN(C)C)c(O)ccc3nc2-1` [Topotecan, topotecan], the IC50 (KB-HTI-4.0; Homo sapiens) is reported as 1030 ± 541 nM, the “(RR) relative resistance vs. parental cells” value (KB-HTI-4.0) is reported as “(57)” and the IC50 (KB-3-1; [3]) is reported as 18.1 ± 2.98 nM.
`CCC1=C[C@@H]2CN(C1)Cc1c([nH]c3ccccc13)[C@@](C(=O)OC)(c1cc3c(cc1OC)N(C)[C@H]1[C@@](O)(C(=O)OC)[C@H](OC(C)=O)[C@]4(CC)C=CCN5CC[C@]31[C@@H]54)C2` [vinorelbine, reference compound] was tested, and the IC50 (KB-HTI-4.0; Homo sapiens) was 8.64 ± 2.94 nM, the “(RR) relative resistance vs. parental cells” value (KB-HTI-4.0) was “(7)” and the IC50 (KB-3-1; Homo sapiens, KB-3-1 parental, Table 3, read-out: KB-3-1 IC50, nM (N)) was 3.5 nM. The IC50 (KB-3-1; [3]) was 1.22 ± 0.33 nM, the IC50 (KB-V1 (MDR1++); [1]) was over 3000 nM and the “RR, relative resistance” value (KB-V1 (MDR1++); IC50 KB-V1 / IC50 KB-3-1, Table 3) was over 857. The IC50 (KB-8-5 (MDR1+); [2]) was 132 nM, the “RR, relative resistance” value (KB-8-5 (MDR1+); IC50 KB-8-5 / IC50 KB-3-1, Table 3) was 38 and the “resistance of KB-8-5 cells” value (KB-8-5 (MDR1+); KB-8-5 (KB-85) vs KB-3-1, in vitro) was 38 fold.
In the case of dolastatin, the “resistance of KB-3-1-derived cell lines selected with Example 129” value (KB-HTI-4.0; vs KB-3-1) is reported as 28 fold.
